# Measurements taken from US6759432B2, “Medical use of matrix metalloproteinase inhibitors for inhibiting tissue contraction” (University of Florida Research Foundation, priority 1994, dated 2004).
# Key:
# [1] = system: Human ocular fibroblasts (Tendon's capsule fibroblasts); assay: Toxicity by tritiated thymidine incorporation (DNA synthesis); format: cell-based; conditions: 80.0, 8.0 and 0.8 μg/ml; 24 hours; medium plus 10% serum and vehicle
# Procedure: The toxicity of the inhibitors was tested by measuring DNA synthesis by tritiated thymidine incorporation. The assay was adapted from a procedure previously described, Woost, P. G. et al 1992.
# Human ocular fibroblasts (Tendon's capsule fibroblasts) were cultured in Trimix (DMEM/F-10/M-199) cell culture medium (available from GIBCO/BRL) supplemented with 10% bovine calf serum and grown to confluency in T-75 tissue culture flasks. (That is flasks having a surface area of 75 cm^2.) The cells were split and seeded into 24 well plates at a density of 1×10^4/well in 1.0 ml of medium with 10% bovine calf serum. The cells were incubated for 24-36 hours or until they reached 60-70% confluency. The medium was then changed to serum-free Trimix and the cells were incubated for an additional 24 hours. The cells were then incubated in quadruplicate wells for 24 hours with 1.0 μCi/well ^3H-thymidine in the following conditions: serum-free medium (Trimix), medium plus 10% serum, medium plus 10% serum and vehicle, alone or with the inhibitors. The vehicle was a buffered acetate solution. The solutions comprising medium with 10% serum and vehicle, alone or with inhibitors, were prepared by the method described in Example 1, section (c), above, using Trimix instead of the HEPES buffered DMEM. […] Radioactivity was determined by liquid scintillation counting […] of the solubilized cells. […]
# [2] = target: gelatinase; assay: Inhibition constant with gelatinase; format: biochemical
# [3] = system: human ocular fibroblasts; assay: Contraction of fibroblast populated collagen gels (lattice area); format: cell-based; conditions: for contraction of gels (mean lattice area): 40 and 4 μg/ml, 7 days, vs hydroxamic acid control
# Procedure: They were then removed from their substratum via a trypsinisation and were pelleted by centrifugation at 3000× g for 8 minutes. The supernatant was then discarded and the cell pellet resuspended in 1.1 ml of newborn calf serum. 100 μl of the suspension was removed and counted in a Coulter counter (Model ZF).
# Triplicate gels were made by adding 1.05 ml of the concentrated medium to 1.8 ml of the type 1 collagen solution, mixing rapidly and then adding 0.45 ml of a cell suspension containing 300,000 cells and mixing rapidly.
# 1 ml aliquots of this gel were then added to petri dishes (area=8 cm^2) and then the dishes were rotated so that the gels were evenly distributed across the bottoms of the dishes. The gels were then incubated at 37° C. in 5% CO2 in air until they had solidified (usually 3 to 5 minutes). An area of the gel was then detached from the edge of each petri dish and 3 ml of normal growth medium solution (control 2), inhibitor test solution or buffer solution (control 1), were added. Each gel was then fully detached from the edges and bottom of the petri dish so that free-floating gels were obtained.
# The gels, after solidification, were treated for 24 hours with 3 ml of each of the following test solutions:
# The test and control solutions were replaced by 3 ml of the appropriate fresh solution after 24 hours. Photographs of the gel areas were taken on days 1 and 2 and were then digitised. The resulting data were processed by a computer and the gel areas were calculated. Phase-contrast photographs were taken of the top and middle of each gel after 1 and 2 days.
# Test solutions were used in approximately 3 ml doses. For all contraction experiments cell morphology was monitored by phase contrast microscopy and the growth medium was changed every 3 to 4 days.
# Collagen gels were seeded with either 100,000 or 500,000 cells. […] The gels were monitored for 7 days.
# They were exposed to inhibitor and control solutions in the following ways:
# The experiment was carried out as for (a) above with 1×10^5 cells per lattice and the test solutions used were BB-94 4 μg/ml, BB-94 0.4 μg/ml and control with vehicle (0.1% vol/vol DMSO). The development of the lattices was followed for seven days after seeding.
# The experiment was carried out as for (d) above except that the test solutions used were 1:50 (vol/vol) of antibodies in growth medium. The antibodies used were antibodies to MMPs 1, 2, 3 and 9, obtained from Biogenesis Ltd., (Poole, U.K.). A control solution of 0.1% sodium azide and 0.14% rabbit serum in PBS diluted to 1:50 in growth medium was also used.
# [4] = system: human ocular fibroblasts; assay: Cytotoxicity: cell count and trypan blue dye exclusion; format: cell-based; conditions: 40 and 4 μg/ml; 2×10^4 cells per well; vs control medium
# Procedure: This experiment was carried out substantially according to the method of Example 2, except that cells were seeded at 2×10^4 cells per well, cultured without radioactive material and were exposed to control medium (DMEM/10% NCS) or Galardin at 40 μg/ml and 4 μg/ml concentration. […] Wells were harvested and cells counted on a haemocytometer, see FIG. 3E for the results, and the percentage of viable cells in each well was measured using the trypan blue dye exclusion test, see FIG. 3F for the results.
# [5] = system: MMP activity (proteolytically active species) of human Tenon's capsule fibroblasts; assay: Gelatin zymography of seeded collagen lattices; format: cell-based; conditions: treatment of seeded lattices
# Procedure: Samples of conditioned medium and collagen lattices (1×10^5 cells/lattice) were collected on days 1, 3 and 7 post seeding. Lattices were washed in phosphate buffered saline (PBS; 3×3 ml) prior to homogenisation in 0.5% (vol/vol) Triton-X100 in PBS (Hunt et al. 1993]. Gelatin zymography [Heussen & Dowdle 1980] was then performed on these samples. Briefly, samples and prestained molecular weight standards were resolved on 10% tris glycine gels containing 0.1% gelatin (Novex, R&D Systems, Oxford, U.K.). Gels were then incubated for 30 minutes in renaturing buffer, 30 minutes in developing buffer followed by a further 18 hours in developing buffer at 37° C. (all Novex). Gels were than stained in 0.5% (wt/vol) commassie blue in 45% (vol/vol) water, 45% (vol/vol) methanol and 10% (vol/vol) glacial acetic acid, followed by destaining in 45% (vol/vol) water, 45% (vol/vol) water, 45% (vol/vol) methanol and 10% (vol/vol) glacial acetic acid. MMP activity appeared as clear bands on a blue background.
# [6] = system: human dermal fibroblasts; assay: Collagen lattice contraction, human dermal fibroblasts; format: cell-based; conditions: 40 μg/ml
# Procedure: (§1) Collagen lattices (gels) were prepared as previously described in Example 1 and were seeded with 1×10^5 cells per lattice of:
# (§2) The lattices were then exposed to growth medium containing Galardin at 40 μg/ml or hydroxamic acid at 100μM (control). The test solutions were made up as described in Example 3 above and approximately 3 ml dose of the appropriate test solutions were used.
# [7] = system: rat parietal sheath fibroblasts; assay: Collagen lattice contraction, rat parietal sheath fibroblasts; format: cell-based; conditions: 40 μg/ml
# Procedure: as §1, §2
# [8] = system: rat endotendon fibroblasts; assay: Collagen lattice contraction, rat endotendon fibroblasts; format: cell-based; conditions: 40 μg/ml
# Procedure: as §1, §2
# [9] = system: human keratinocytes and human dermal fibroblasts; assay: Contraction of artificial skin equivalent; format: cell-based; conditions: 40 μg/ml; 7 days; vs hydroxamic acid 100 μM
# Procedure: The effect of an MMP inhibitor on the contraction of an artificial skin equivalent was tested. […] This lattice was then exposed to growth medium containing Galardin at 40 μg/ml or hydroxamic acid at 100μM (control).
# [10] = system: ocular fibroblasts; assay: Fibroblast morphology within collagen lattices (phase contrast microscopy); format: cell-based, human
# Procedure: Collagen lattices seeded with ocular fibroblasts were prepared and exposed to MMP inhibitors, both synthetic chemicals and antibodies, as described in Example 3 above. Cellular morphology was monitored by phase contrast microscopy.
# [11] = system: Tenons capsule fibroblast; assay: Actin cytoskeleton staining with FITC-phalloidin; format: cell-based, human; conditions: 40 μg/ml
# Procedure: Monolayer cultures of fibroblasts and collagen lattices (gels) seeded with 1×10^5 cells per lattice were prepared (as described in Example 1).
# In order to assess whether this difference was owing to the direct effect of the inhibitor or to differences in the degree of invasion into the matrix, cells were exposed in monolayer culture to the inhibitor and the cytoskeleton was-stained. See FIGS. 10A (control) and 10B (exposed to inhibitor). The arrows indicate the stress fibres on the cells in the monolayer culture.
# [12] = target: stromelysin (Homo sapiens, UniProt P08254); assay: biochemical
# stromelysin, sequence (P08254 100-477): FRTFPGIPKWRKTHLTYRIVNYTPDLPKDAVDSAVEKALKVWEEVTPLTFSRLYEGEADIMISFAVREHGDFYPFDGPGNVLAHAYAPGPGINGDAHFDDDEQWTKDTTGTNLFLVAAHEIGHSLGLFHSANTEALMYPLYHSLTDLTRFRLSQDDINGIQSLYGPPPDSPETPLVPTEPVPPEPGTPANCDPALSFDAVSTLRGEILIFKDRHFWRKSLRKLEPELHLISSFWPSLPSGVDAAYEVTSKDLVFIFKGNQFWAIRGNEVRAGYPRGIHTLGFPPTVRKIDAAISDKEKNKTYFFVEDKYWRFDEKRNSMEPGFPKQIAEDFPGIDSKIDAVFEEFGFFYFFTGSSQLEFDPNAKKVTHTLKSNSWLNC
# [13] = 1×10^5 cells per lattice, 7 days, vs hydroxamic acid 100 μM
compound,measurement,setting,value
CC(C)C[C@H](CC(=O)O)C(=O)N[C@@H](Cc1c[nH]c2ccccc12)C(=O)N[C@@H](C)c1ccccc1 [GM1489],toxicity (3H-thymidine incorporation),[1],no significant toxicity
"CNC(=O)[C@H](Cc1c[nH]c2ccccc12)NC(=O)[C@@H](CC(=O)NO)CC(C)C [GM6001, N-[2(R)-2-(hydroxamidocarbonylmethyl)-4-methylpentanoyl]-L-tryptophan methylamide]",Ki,[2],0.4 nM
same,contraction of lattices already contracted for 5 days,"[3]; 4 μg/ml from day 5 for 25 days, vs control solution",inhibited contraction
same,contraction after replacement of inhibitor by control solution (reversibility),"[3]; 4 μg/ml until day 14, then control solution",significant increase in contraction from day 14 onwards
same,contraction of lattices already contracted for 5 days,[3]; 40 μg/ml from day 5 for 25 days,stronger inhibitory effect than the 4 μg/ml solution
same,contraction of collagen gels (gel area),"[3]; 400, 40 and 4 μg/ml, 100,000 cells per gel, 2 days, vs buffer and normal growth medium",inhibited the contraction of the collagen gels
same,dose dependence of inhibition of gel contraction,"[3]; 400, 40 and 4 μg/ml, 2 days",dose dependent
same,viability of cells in the collagen gels at end of test (phase contrast microscopy),"[3]; 400, 40 and 4 μg/ml, 2 days",appeared to be viable
same,contraction of gels (mean lattice area),"[3]; 100,000 cells per lattice",much less than that of gels exposed to control solutions
same,contraction of gels (mean lattice area),"[3]; 500,000 cells per lattice",much less than that of gels exposed to the control solution
same,contraction of lattices (mean lattice area),"[3]; continual exposure to 4 μg/ml, 1×10^5 cells/lattice, up to 40 to 50 days",very little contraction
same,toxicity (3H-thymidine incorporation),[1],no significant toxicity
same,cell number per well (haemocytometer),[4],did not adversely affect
same,"cell viability (percentage of viable cells, trypan blue)",[4],did not adversely affect
same,proteolytically active species in gelatin zymography,[5],abolishment of the four proteolytically active species
same,contraction of lattices (mean lattice area),[6]; [13],greatly reduced
same,cellular invasion into and migration through the surrounding matrix,[6]; compared to controls,decreased cellular invasion into and migration through
same,contraction of lattices (mean lattice area),[7]; [13],greatly reduced
same,cellular invasion into and migration through the surrounding matrix,[7]; compared to controls,decreased cellular invasion into and migration through
same,contraction of lattices (mean lattice area),[8]; [13],greatly reduced
same,cellular invasion into and migration through the surrounding matrix,[8]; compared to controls,decreased cellular invasion into and migration through
same,contraction of artificial skin equivalent (mean lattice area),[9],less contraction than those exposed to the control solution
same,cell morphology in lattices,"[10]; 4 μg/ml, 7 days post seeding",Small cytoplasmic projections
same,invasion into the surrounding collagen matrix,"[10]; synthetic inhibitors as in Example 3, compared to controls",decreased invasion into the surrounding collagen matrix
same,actin stress fibres on cells populating collagen gels,[11]; collagen lattice,do not appear to be present
same,actin cytoskeleton in monolayer culture,"[11]; monolayer culture, compared to controls",did not appear to affect the actin cytoskeleton
same,Ki,[12],20 nM
